Experiment [1] has as its system Normal human epidermal keratinocytes (NHEK). The experiment can be described thus: Lipid peroxidation in NHEK under UV stimulation (C11-fluor probe, flow cytometry). The class given is cell-based. The note with it: 100 μM, irradiated UVB 300 mJ/cm^2 (+UVA 2.1 J/cm^2). The protocol: Normal human epidermal keratinocytes were seeded in 48-well plates and cultured in culture medium for 24 hours and then in assay medium for a further 24 hours. The medium was then removed and replaced by assay medium containing or not (irradiated control) the test compounds or the reference (BHA—butylated hydroxyanisole, lipid peroxidation inhibitor—at 100 μM) and the cells were pre-incubated for 24 hours. After pre-incubation, the specific fluorescent probe for the measurement of lipid peroxides (C11-fluor) was added and the cells were incubated for 45 minutes. Then, the medium was removed and replaced by assay medium containing or not (irradiated control and test compound conditions) the reference and the cells were irradiated with UVB (+UVA)−300 mJ/cm^2 (+2.1 J/cm^2). The lamp used was a SOL500 Sun Simulator equipped with an H2 filter (Dr. Hbnle. AG). After irradiation, the medium was removed and replaced by assay medium containing or not (irradiated control) the test compounds or the reference and the cells were incubated for 30 minutes before flow cytometry analysis. A non-irradiated control condition was performed in parallel. All experimental conditions were performed in triplicate.
At the end of the incubation, in each well, the cells were trypsinized and transferred into specific tubes for the analysis of C11-fluor fluorescence intensity using a BD FACSVerse™ flow cytometer (acquisition of 2000 to 5000 events per tube). The C11-fluor fluorescent probe is a lipid analogue which integrates cell membranes. As the fluorescence intensity of this probe is decreased with oxidation, it is inversely proportional to the lipid peroxidation. In order to facilitate the result interpretation, the lipid peroxidation was expressed using the value “1/fluorescence intensity” in order to have a direct proportionality between the induction of lipid peroxidation and the values of “% of irradiated control”.
Results presented in Table 24 are expressed as fluorescence intensity and as […] of protection compared to the control.
Background: Flow cytometry measures light scatter and fluorescence of single cells or particles in a stream.

Another experiment concerns human preadipocytes. In words: Total lipid accumulation (AdipoRed staining) in preadipocytes/adipocytes in inflammatory condition. The class given is cell-based. The note with it: AcMC + 100 nM, end of the culture. The procedure: (§1) Preadipocytes have been isolated from human female hypodermis (body mass index <30 kg/m2 and <45 years old). Preadipocytes have been cultured for 24 h in 100 μl of DMEM-10% Fetal Bovine Serum (FBS) in 96-well plates. Then cells were treated to induce their differentiation in a classical or an inflammatory environment for 13 days.
(§2) To induce the preadipocytes differentiation cells were incubated in a proadipogenic cocktail (PAC) including insulin, glucocorticoid, 3-isobutyl-1-methylxanthine (IBMX), and thiazolinedione in DMEM.
(§3) To induce a fibro-inflammatory environment, cells were treated with an activated human macrophage-conditioned medium (AcMC) prepared in RPMI medium. A treatment with Dexamethasone (DXM) at 100 nM was used as anti-inflammatory response control. At D0: preadipocytes have been treated in the following conditions: • “Undifferentiation”: DMEM+¼ RPMI medium • “Differentiation”: PAC+¼ RPMI medium • “AcMC” i.e. inflammatory condition: PAC+¼ AcMC • “AcMC+DXM”: PAC+[…] AcMC+anti-inflammatory DXM at 100 nM • “AcMc+compounds”: PAC+14 AcMC+compounds to be tested
(§4) All conditions have been performed in triplicate. The medium has been changed every 2 days for 13 days.
After 14 days of culture, preadipocytes have been fixed with 4% paraformaldehyde and then stained by AdipoRed™ at room temperature to reveal the intracellular lipid droplets. Quantification of lipid accumulation has been performed by fluorescence intensity measurements using the spectrophotometer Spark (TECAN).
Lipid accumulation and Lipid index were evaluated for each condition. Data are represented in percentage of proinflammatory control condition (AcMC condition).

The test system of another experiment is MCP1. In words: Extracellular secretion of MCP1 by preadipocytes in inflammatory condition (ELISA). The class given is cell-based, human. The protocol: as §1, §2, §3, §4
(§5) At D14: during the last 24 h of culture, the medium has been replaced by DMEM/F12 medium in all conditions, to collect cells' secretions.
(§6) After 13 days, the 24 h culture media of the different conditions have been collected at the end of the treatment period. The concentrations of IL-6, procollagen I and MCP1 have been evaluated by ELISA assays using specific kits (for IL-6: DY206, DuoSet ELISA, R&D Systems; for Procollagen I: DY6220-05, DuoSet ELISA, R&D Systems; for MCP1: DY279-05 DuoSet ELISA, R&D Systems) according to the manufacture's recommendations. Values have been normalized to the cell number determined by DAPI staining.
Quantity of MCP1 secreted in medium was measured and was normalized by cell number in each culture condition. Data are represented in percentage of proinflammatory control condition (AcMC condition).
Background: An ELISA detects its analyte on a solid surface through an enzyme-linked reagent.

Another experiment relates to Collagen I fibers. The experiment can be described thus: Quantity of Collagen 1 fibers produced by preadipocytes in inflammatory condition (immunofluorescence). The class given is cell-based, human. To be noted: AcMC + 100 nM, normalized by cells number (DAPI). The procedure: as §1, §2, §3
One month after fixation of preadipocytes cultivated in pro-inflammatory environment, cells were incubated with 3% Bovine Serum Albumin (BSA) for 30 min in order to block the non-specific sites, then with primary antibody anti-collagen 1 (Novusbio, NB600-408) over-night. After washes with PBS, cells were incubated for 30 min with 3% BSA and then with the secondary antibodies (Goat anti-rabbit alexa-fluor 488, ThermoFisher, A11008) and DAPI (for nuclei staining) for 1 h. After several washes, the acquisition and the quantification were performed with a fluorescent video-microscope. Briefly, the quantification was based on the detection and quantification of cell nuclei stained with DAPI, and the detection of collagen 1 staining. Collagen 1 fibers were detected and measured for their length, thickness and intensity. A Collagen 1 fibers quantity was calculated (Quantity=length*thickness*fluorescence intensity) and normalized by cells number (DAPI staining).
Collagen I fibers (fibrillar collagen I) quantity was quantified and the data were normalized by cell number (DAPI staining, quantification of nuclei number). Data are represented in percentage of proinflammatory control conditions (AcMC condition).

Experiment [2] relates to IL-6. In words: IL-6 secretion in coculture of human aged fibroblasts and mature adipocytes (AM3D-FB2D, ELISA). Format: cell-based. To be noted: for secretion of IL-6 in percentage of the coculture control condition, Mean (%) / secretion of IL-6 in percentage of the coculture control condition, Values (%): 100 nM; for secretion of IL-6 in percentage of the coculture control condition, Values (%): individual replicates; for IL-6 secretion in percentage of the coculture control condition: anti-inflammatory reference item. From the text:
In order to evaluate its effect on fibroblast matrix and its anti-inflammatory properties, the effect of compound 6 has been tested on an adipocytes-aged fibroblasts coculture model, mimicking the interactions between dermis and hypodermis in the skin and allowed to explore in parallel the biological effects of the products on two cellular targets.
• Experimental model: co-culture of human mature adipocytes cultured in 3D and human dermal fibroblasts cultured in 2D (AM3D-FB2D co-culture). This experimental model of AM3D-FB2D co-culture mimicked the interactions between dermis and hypodermis in the skin and allowed to explore in parallel the biological effects of the products on two cellular targets. • Donor characteristics: This study was performed on mature adipocytes and fibroblasts from two different donors (one donor for mature adipocytes and another donor for dermal fibroblasts). • Fibroblasts donor=person, BMI=28 kg/m^2 • Adipocytes donor=person, BMI=21.4 kg/m^2 • Treatment procedure: compound 6 was added to the co-culture medium daily for up to 6 days
Dermal fibroblasts were seeded in DMEM 10% FBS at 10000 cells/well. The day after, the adipocytes capsules of 50 μl were added in suspension above the fibroblasts and the medium was changed and replaced by a specific culture medium for the co-culture AM3D-FB2D. The formation of adipocytes capsules followed an internal standardized protocol. Briefly, the fully mature adipocytes were isolated from the hypodermis after digestion by collagenase. The isolated adipocytes were then washed with a wash buffer and encapsulated in a peptidic hydrogel to form 3D adipocytes capsules of 50 μl in size. Cells were incubated at 37° C. and 5% CO2 overnight for stabilization. Treatments were initiated at DO with a medium change at DO, D2, D3 and D5. The entire culture media of 24 h incubation was collected at D3 and D6, before being centrifugated and stored at −80° C. Each culture condition was done in triplicate.
The biochemical analyses on culture media were performed via ELISA using specific kits according to the manufacturer's recommendations: IL-6 (Duoset DY206, R&D Systems), and Hyaluronic Acid (HA) (Duoset, DY3614-05, R&D Systems and Procollagen I (Duoset, DY6220-05, R&D Systems) The results of HA and Procollagen I were normalized by fibroblasts cell number regarding the fact that these molecules were secreted mainly by fibroblasts. All the biochemical results were represented in percentage of the control condition.
To evaluate the effect of the compound 6 on inflammation, the extracellular concentrations of IL-6, that is secreted by the fibroblasts but mainly by the adipocytes, were measured at D3 and D6.

Experiment [3] concerns IL-6. In words: Extracellular secretion of IL-6 by preadipocytes in inflammatory condition (ELISA). Format: cell-based, human. The protocol:
as §1, §2, §3, §4, §5, §6
Quantity of IL-6 secreted in medium was measured and was normalized by cell number in each culture condition. Data are represented in percentage of proinflammatory control condition (AcMC condition).

Setting [4] is: AcMC + 100 nM, normalized by cells number (DAPI).
[5] abbreviates: AcMC + 100 nM, normalized by cells number (DAPI), individual values.

Each structure is given as a SMILES string. Values joined by “and” are separate entries in the source; they are usually repeats but may differ in a detail not shown here. Equal entries are not always repeated.

For `COc1ccc(O)c(C(C)(C)C)c1` [BHA, Butylated hydroxyanisole, reference compound], in experiment [1], the “% Irradiated control (lipid peroxidation)” value came out at 31%, the “% Protection (lipid peroxidation)” value was found to be 75% and the “C11-fluor 1/GMFI Mean (AU)” value was 2.7E−04 AU. Further, in experiment [1] (individual replicates), the “C11-fluor 1/GMFI (AU)” value is 1.90E−04 AU and 2.74E−04 AU and 3.37E−04 AU; the “C11-fluor GMFI (AU)” value was 5266 AU and 3653 AU and 2965 AU.
Regarding `C[C@@H]1C[C@H]2[C@@H]3CCC4=CC(=O)C=C[C@]4(C)[C@@]3(F)[C@@H](O)C[C@]2(C)[C@@]1(O)C(=O)CO` [Dexamethasone, reference compound], the “Total Lipid Accumulation (Adipored staining), Mean” value in the experiment on human preadipocytes is 220.6 % of AcMC condition. In the experiment on human preadipocytes (individual values), the “Total Lipid Accumulation (Adipored staining), Values” is 213.8 % of AcMC condition and 229.4 % of AcMC condition and 218.6 % of AcMC condition. Further, the “MCP1 secretion, Mean (%)” value in the experiment with MCP1 (setting [4]) is given as 95 % of AcMC condition. Also, the “MCP1 secretion, Values (%)” value in the experiment on MCP1 (setting [5]) is 82.4 % of AcMC condition and 106.8 % of AcMC condition and 97.2 % of AcMC condition. For the same compound, the “Effect on the MCP1 secretion” value in the experiment on MCP1 (AcMC, DXM at 100 nM) is “no effect”. Further, the “Collagen I fibers quantity, Mean (%)” value in the experiment on Collagen I fibers was 391 % of AcMC condition. The “Collagen I fibers quantity, Values (%)” value with Collagen I fibers (individual values) is 397.3 % of AcMC condition and 390.0 % of AcMC condition and 384.5 % of AcMC condition. The “secretion of IL-6 in percentage of the coculture control condition, Mean (%)” value in the experiment on IL-6 [2] (D3) was 34%; in the experiment with IL-6 [2] (D6) it was 41%. The “secretion of IL-6 in percentage of the coculture control condition, Values (%)” value is 22% and 48% and 31% in the experiment on IL-6 [2] (D3); 39% and 24% and 61% in the experiment on IL-6 [2] (D6). For the same compound, the results for the “IL-6 secretion in percentage of the coculture control condition” value in the experiment with IL-6 [2] (3 days of treatment) and with IL-6 [2] (6 days of treatment) were 34% and 41%, respectively. In the experiment with IL-6 [3] (setting [4]), the “IL-6 secretion, Mean” value was 22.8 % of AcMC condition. For the same compound, the “IL-6 secretion, Values” in the experiment with IL-6 [3] (setting [5]) was 21.9 % of AcMC condition and 21.8 % of AcMC condition and 24.5 % of AcMC condition. Further, in the experiment with IL-6 [3] (preadipocytes/adipocytes, AcMC, 100 nM), the “IL-6 secreted, normalized by cell number, in % of AcMC condition” value was 22.8%.

(Values after patent publication US20240124510A1, “Cyclic Glycoaminoacid Derivatives” (TFCHEM, priority 2021, published 2024).)
